The record followed here is patent US10457639B2, “Fluorescent regulators of RASSF1A expression and human cancer cell proliferation” (GEORGETOWN UNIVERSITY, priority 2008, dated 2019).

Each structure is given as a SMILES string. Bounds are passed on as bounds.

Data set [1] has as its system PC3 cells. Briefly: Cell growth assay, trypan blue dye exclusion count. Type of data set: cell-based. Here is the method: Cell Line and Cell Growth Assay. Human prostate cancer cell line PC-3 was procured from the American Type Cell Culture Collection (Manassas, Va.). Cells were grown in IMEM without phenol red (Invitrogen, Carlsbad, Calif.) with 10% fetal bovine serum, 2 mM glutamine, 100 U/mL penicillin G sodium, and 100 μg/mL streptomycin sulfate (Sigma, St. Louis, Mo.) in the presence of 5% CO2 at 37° C. For the cell growth experiment, PC-3 cells were seeded in 6-well plates in triplicate with an initial density of 2×10^3 cells per well. Twenty-four hours after seeding, the attached cells were treated with vehicle (DMSO) or 1, 5, 15, 30 and 60 μM compound. After another twenty-four hours, the cells were washed with 1×PBS, trypsinized and re-suspended in complete growth medium. Trypan blue (0.4%) was added to the cell suspension and both live and dead cells were counted using a hemocytometer.
Compounds 6-10 were screened for growth inhibition in PC-3 human prostate cancer cells using previously reported methods (Table 1; Sinha et al. The Prostate. 2006, 66, 1257-1265). […] This was unexpected, since the methyl moiety of mahanine is in the 3-position. Compound 9, with its GI50 value near that of the compound 6 series (compounds 6, 6a, 8) and a deprotected hydroxyl group in the 2-position, implies that whatever hindrance is imposed by a methyl in the 3-position can be partially overcome if steric bulk at the 2-position is reduced. Indeed, looking at the structure of mahanine, the restraint of the ether cycle may provide enough reduction of apparent bulk at the 2-position to moderate its methyl in the 3-position. Additionally, the ether ring system puts the equivalent of a methyl group in the 1-position, which could also be aiding in the low μM activity of mahanine, if the relatively lower values for the compound 6 series are any indication. Moreover, analyzing the structure of compound 10 based on the same criteria, the double-bonded carbon of the ether cycle in the 3-position along with bulk off the 2-position might explain its lesser growth inhibition when compared to mahanine, while the methyl in the 1-position still gives it better activity than compounds 7 and 7a.

For data set [2], the target named is T1, DNMT3a (Homo sapiens, UniProt Q9Y6K1).
T1 construct: treated with propidium iodide (nuclear localization) and DNMT3a or DNMT3b; endogenous in cells; host or cells: PC-3 human prostate cancer cells
Briefly: Multiphoton laser imaging, DNMT3a antibody staining. Type of data set: cell-based. The note with it: PC-3 cells, 5 μM (data not shown). As for the experimental part: Multiphoton laser imaging. After incubating slides with a fibronectin/cortactin solution for 30 minutes, PC-3 cells were plated onto the slides and incubated overnight. The cells were then treated with a 5 μM solution of compound 6a or DMSO control and incubated for 1-6 hour before washing with PBS. The slides were fixed with a 4% formaldehyde solution, washed with PBS then treated with propidium iodide (nuclear localization) and DNMT3a or DNMT3b. The compound was excited at 725 nm with a multiphoton laser and imaged with a 500-550 nm filter.
The dansyl moiety present in compound 6a allows it to visibly fluoresce at 552 nm when excited at 370 nm (FIG. 4A). After treating PC-3 cells with compound 6a, a multiphoton laser was used to excite the compound, and its emission from within the cells was observed by confocal microscopy (FIG. 4B-D). […] To further confirm the hypothesis that compound 6a interaction with DNMT is a crucial factor in the ultimate up-regulation of RASSF1A, the cell samples were stained with antibodies for the DNMT isoforms known to shuttle between the nucleus and the cytoplasm, DNMT3a and DNMT3b (Kim et al., EMBO J, 2002, 21: 4183-4195; Majumber et al., JBC, 2002, 277: 16048-16058). […] Thus, cytoplasmic sequestering of DNMT3b is implied as a mode of action for compound 6a.

The subject of data set [3] is wild-type Balb/c mice. Briefly: Acute oral toxicity up-and-down procedure. The data set is classed as in vivo. Here is the method:
Animals. Balb/c mice and athymic Balb/c nude mice were purchased from the National Cancer Institute (NCI). Animals were housed 4-6 per cage with microisolater tops and provided food (Furina mice chow) and water ad libitum. The light cycle was regulated automatically (12 hours light/dark cycle) and temperature was maintained at 23±1° C. All animals were allowed to acclimate to this environment for one week prior to experimental manipulations. The Georgetown University Animal Care and Use Committee approved all animal studies in accordance with the guidelines adopted by the National Institute of Health.
This provided an ample therapeutic index of >55 at a starting efficacy dose of 10 mg/kg. Athymic Balb/c nude mice with human prostate tumor xenografts were dosed via intraperitoneal injection with 10 mg/kg of compound 6a once a day every other day for 25 days. Control mice were dosed with vehicle alone. Compound 6a reduced tumor volume by roughly 40% compared to control over 25 days (FIG. 8).

Data set [4] relates to human prostate tumor xenografts (PC-3). Briefly: PC-3 human prostate xenograft study. Type of data set: in vivo, mouse. The note with it: athymic Balb/c nude mice, 10 mg/kg IP every other day, over 25 days. As for the experimental part: Male athymic Balb/c nude mice were injected with PC-3 cells and the resulting tumors allowed to grow for a week before dosing IP once a day every other day with 10 mg/kg compound 6a or DMSO control in 1:1 PEG/PBS. Data are presented as the mean±SEM (n=4).
Cell Culture for Xenograft. PC-3 cell line (ATCC, Manassas, Va.) was cultured in RPMI-1640 with L-glutamine (Mediatech Inc., Herdon, Va.) containing 5% fetal bovine serum (FBS), 2.5 mM L-glutamine at 37° C. with 5% CO2.
Xenograft Study. Male athymic Balb/c nude mice (18-22 g) were injected with 3×106 (0.3 mL) of the human prostate cancer cells (PC-3). The human prostate cancer cells were injected in the subcutaneous tissue of the right axillary region of the mice. One week after the injection, the mice were randomly sorted into two groups with four mice per group. A stock solution of compound 6a was obtained by dissolving 1 mg of compound in 1 μl DMSO. The stock was added to polyethylene glycol 400 (PEG) (Hampton) and PBS in a 1:1 ratio. The test concentrations were obtained by diluting with PEG/PBS. The tumor-bearing mice received an intraperitoneal injection (IP) with either 10 mg/kg of 6a or vehicle control once every other day for 4 weeks. At the same time, the tumor size of each mouse was measured by caliper and calculated by the formula: Length×width×height/2. […]

T1 sequence (Q9Y6K1 whole entry, looked up): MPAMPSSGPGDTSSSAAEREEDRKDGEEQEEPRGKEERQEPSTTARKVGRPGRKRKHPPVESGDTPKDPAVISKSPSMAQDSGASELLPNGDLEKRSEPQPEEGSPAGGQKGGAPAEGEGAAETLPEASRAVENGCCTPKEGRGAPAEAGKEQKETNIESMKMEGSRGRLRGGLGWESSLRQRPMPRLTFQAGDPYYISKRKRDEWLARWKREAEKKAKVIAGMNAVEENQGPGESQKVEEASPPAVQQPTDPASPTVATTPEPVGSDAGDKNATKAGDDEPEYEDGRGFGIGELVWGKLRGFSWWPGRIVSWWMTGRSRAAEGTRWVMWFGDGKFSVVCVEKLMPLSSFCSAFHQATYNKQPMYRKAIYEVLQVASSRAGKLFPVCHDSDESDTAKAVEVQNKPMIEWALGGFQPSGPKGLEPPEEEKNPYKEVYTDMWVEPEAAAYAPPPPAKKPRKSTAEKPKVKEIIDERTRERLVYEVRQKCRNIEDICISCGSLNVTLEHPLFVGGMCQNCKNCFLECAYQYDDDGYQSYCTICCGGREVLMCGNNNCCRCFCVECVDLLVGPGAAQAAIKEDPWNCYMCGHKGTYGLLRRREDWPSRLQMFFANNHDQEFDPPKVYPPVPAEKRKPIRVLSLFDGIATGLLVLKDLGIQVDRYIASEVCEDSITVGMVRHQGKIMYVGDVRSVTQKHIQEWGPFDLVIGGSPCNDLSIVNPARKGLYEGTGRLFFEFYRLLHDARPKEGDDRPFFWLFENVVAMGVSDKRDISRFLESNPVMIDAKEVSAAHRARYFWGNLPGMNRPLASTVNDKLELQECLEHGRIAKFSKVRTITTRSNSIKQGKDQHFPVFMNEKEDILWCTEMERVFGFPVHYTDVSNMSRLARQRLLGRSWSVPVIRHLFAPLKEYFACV

What is called GI50 is the concentration giving 50% growth inhibition. In the case of `COc1ccc2c(c1)[nH]c1c(C)c(OS(=O)(=O)c3cccc4c(N(C)C)cccc34)ccc12` [Compound 6a, 7-Methoxy-1-methyl-9H-carbazol-2-yl 5-(dimethylamino)naphthalene-1-sulfonate], the “cytotoxicity compared to mahanine” value in data set [1] is on record as “less cytotoxic than mahanine”. Moreover, in data set [1] (Homo sapiens, PC-3, concentration for 50% growth inhibition in PC3 cells, 24 hours of treatment, mean ± SEM of three observations, read-out: GI50), the GI50 stood at 1.5 ± 0.11 µM. Further, in data set [1] (refers to Table 1), the “increase in activity compared to mahanine in inhibition of growth of prostate cancer cells” value was 5 fold. The DNMT3a localization entry in data set [2] is recorded as “No corresponding effect was seen with DNMT3a”. In data set [3] (550 mg/kg without toxicity versus starting efficacy dose of 10 mg/kg), this molecule showed a therapeutic index above 55. For the same molecule, the acute oral toxicity result in data set [3] (wild-type Balb/c mice dosed up to 550 mg/kg, oral) is on record as “no toxicity was observed”. The “reduction of tumor volume compared to control” value in data set [4] is listed as “roughly 40%”.
